Experimental data published in article PMC10771590, “Pathway crosstalk between the central metabolic and heme biosynthetic pathways in Phanerochaete chrysosporium” (Applied Microbiology and Biotechnology, 2024).
Like-named read-outs stand apart in the source and are kept apart here.

Tests used:
[1] = system: Glyceraldehyde 3-phosphate dehydrogenase (GAPDH) of Plasmodium falciparum; design: method as in Campanale et al. 2003; conditions: ref Campanale et al. 2003; cited from earlier work
PcGAPDH = molecular target: T1, PcGAPDH (Phanerodontia chrysosporium, UniProt Q01982); assay: Peroxidative activity of GAPDH–hemin complex (TMB oxidation); format: biochemical, Phanerochaete chrysosporium; conditions: on binding PcGAPDH in vitro, 1:1 or 1:2 PcGAPDH:hemin, 100 μM H2O2
T1 construct: 6xHis-tag (pET-30) (cleaved yes); made in house; host or cells: E. coli BL21(DE3)pLysS
T1 sequence (Q01982 whole entry): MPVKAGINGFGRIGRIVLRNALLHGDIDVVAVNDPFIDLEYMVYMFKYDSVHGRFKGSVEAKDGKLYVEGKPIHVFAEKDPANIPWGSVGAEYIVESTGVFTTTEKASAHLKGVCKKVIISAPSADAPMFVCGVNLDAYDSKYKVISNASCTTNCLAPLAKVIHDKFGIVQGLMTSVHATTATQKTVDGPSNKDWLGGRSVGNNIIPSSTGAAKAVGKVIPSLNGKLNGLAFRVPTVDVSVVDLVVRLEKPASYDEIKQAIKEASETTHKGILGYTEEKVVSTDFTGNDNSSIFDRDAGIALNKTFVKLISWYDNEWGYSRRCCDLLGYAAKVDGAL
Procedure: Peroxidative activity of the PcGAPDH–hemin complex was investigated by using 3, 3′, 5, 5′-tetramethylbenzidine (TMB) as oxidation substrate. Before the assay, 100 μM PcGAPDH was incubated with hemin at 1:1 or 1:2 stoichiometry for 30 min at 4 °C in the dark. Reaction mixtures (1 ml) contained 40 mM Tris–HCl (pH 7.5), 125 μM TMB, 100 μM hydrogen peroxide, and 1 μM PcGAPDH with hemin at 1:1 or 1:2 stoichiometry. As a control, 1 or 2 μM hemin without PcGAPDH was used. The reaction was monitored at 655 nm upon the formation of benzidine cation radical for 1 min.
Fig. 6 Peroxidative activity of GAPDH–hemin complex. Peroxidative activity of GAPDH–hemin complex was investigated by using TMB as an oxidation substrate. Reaction mixtures contained 40 mM Tris/HCl (pH 7.5), 125 μM TMB, 100 μM hydrogen peroxide, 1 μM PcGAPDH with hemin at 1:1 (a) or 1:2 (b) stoichiometry. As a control, 1 (c) or 2 (d) μM hemin without PcGAPDH was used. The reaction was monitored at 655 nm for 1 min

[2] = molecular target: T2, recombinant PcGAPDH (rPcGAPDH) (Phanerodontia chrysosporium, UniProt Q01982); assay: GAPDH assay and steady-state kinetic analysis; format: biochemical, Phanerochaete chrysosporium; conditions: rPcGAPDH
T2 construct: 6xHis-tag (pET-30) (cleaved yes); made in house; host or cells: E. coli BL21(DE3)pLysS
T2 sequence (Q01982 whole entry): as above
Procedure: GAPDH assay was performed as previously described (Campanale et al. [2003]). For steady-state kinetic analysis, the reaction mixture (1 ml) contained 40 mM phosphate (pH 7.6), 5.2 μg recombinant PcGAPDH (rPcGAPDH), 40 mM triethanolamine, 5 mM NAD^+, and 0.6–2 mM glyceraldehyde 3-phosphate (GAP3). Reactions were monitored by the increase in absorbance at 340 nm (ε 6220 M^–1 cm^–1) for 1 min, and initial velocities were determined. Inhibitory experiments were done in the presence of 0–2.5 μM hemin. To examine the effect of hemin on GAPDH kinetics, PcGAPDH was incubated with either buffer (control) or hemin for 5 min prior to initiating the reaction. Kinetic parameters were determined from Lineweaver–Burk plots, and Ki values were determined from the secondary plot of each slope of the Lineweaver–Burk plots. Immediately prior to use, hemin was dissolved at 10 mM in 0.1 M NaOH and diluted with 40 mM Tris–HCl (pH 7.5).
Fig. 2 Heterologous expression of PcGAPDH and inhibitory effect of hemin on GAPDH reaction. A M, molecular weight marker; lane 1, rPcGAPDH-His-tag; lane 2, His-tag-cleaved rPcGAPDH. B Reaction mixtures containing 2.5 nM rPcGAPDH, 40 mM phosphate (pH 7.6), 40 mM triethanolamine, 5 mM NAD^+, and 0.6–2 mM GAP3. […] Inset: secondary plots of each slope of Lineweaver–Burk plots against the concentration of hemin for determining inhibition constants. C Reaction mixtures containing 2.5 nM rPcGAPDH, 40 mM phosphate (pH 7.6), 40 mM triethanolamine, 5 mM NAD^+, and 0.6 mM GAP3. Reactions were started by adding substrates followed by 5-min incubation with either buffer or 1 μM inhibitor (hemin or protoporphyrin IX, PPIX). […] All experiments were performed in triplicate. Bars indicated as mean values ± standard deviation (error bars)

[3] = molecular target: T3, rPcCS (mitochondrial citrate synthase) (Phanerodontia chrysosporium, UniProt Q0EAA7); assay: CS assay (DTNB method) and steady-state kinetic analysis; format: biochemical, Phanerochaete chrysosporium; conditions: for Ki: 0–2.5 μM hemin
T3 sequence (Q0EAA7 1-446): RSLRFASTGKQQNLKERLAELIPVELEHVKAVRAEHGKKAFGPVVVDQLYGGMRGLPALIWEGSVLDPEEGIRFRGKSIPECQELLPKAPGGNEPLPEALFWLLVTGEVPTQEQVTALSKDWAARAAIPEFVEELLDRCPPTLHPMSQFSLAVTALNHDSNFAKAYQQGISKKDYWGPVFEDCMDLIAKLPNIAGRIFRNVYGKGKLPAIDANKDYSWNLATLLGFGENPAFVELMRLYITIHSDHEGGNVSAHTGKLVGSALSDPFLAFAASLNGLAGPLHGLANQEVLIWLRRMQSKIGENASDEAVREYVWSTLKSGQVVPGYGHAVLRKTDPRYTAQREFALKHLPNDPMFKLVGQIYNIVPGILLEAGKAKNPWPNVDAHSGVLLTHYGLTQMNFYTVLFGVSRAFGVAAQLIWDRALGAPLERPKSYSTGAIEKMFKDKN
Procedure: CS was assayed by the 5, 5′-dithiobis-2-nitrobenzoic acid (DTNB) method, as described previously (Srere et al. [1963]). […] CS catalyzes the reaction of OAA with AcCoA, generating citrate and CoA. Thus, reactions were monitored by the amount of released CoA, which was followed at 412 nm (ε 13 600 M^–1cm^–1) by the formation of 2-nitro-5-mercaptobenzoic acid, via the reaction of CoA with DTNB. Reactions were monitored for 1 min, and initial velocity was determined. […] Inhibition studies were carried out in the presence of 0–2.5 μM hemin as described above. Kinetic parameters were determined from Lineweaver–Burk plots, and Ki values were determined from the secondary plot of the slopes of the Lineweaver–Burk plots. Hemin and OAA solutions were prepared immediately prior to use.
Fig. 5 Inhibitory effect of hemin on PcCS reaction. […] Reaction mixtures contained 1.5 nM rPcCS, 40 mM Tris-HCl (pH 8.5), and 120 μM DTNB. Fixed substrate was added at 12 μM and variable substrate at 3–12 μM. […] Insets: secondary plots of each slope of Lineweaver–Burk plots against the concentration of hemin for determining inhibition constants.

C=CC1=C(C)c2cc3[nH]c(cc4nc(cc5[nH]c(cc1n2)c(C)c5CCC(=O)O)C(CCC(=O)O)=C4C)c(C)c3C=C.[Fe+3] [hemin]
Ki [1]: 0.2 µM
TMB-oxidizing ability of heme (PcGAPDH): suppressed
inhibitory pattern (steady-state analysis) ([2]; GAP3 as variable substrate): mixed type
Ki ([2]; pH 7.6, 5 mM NAD+, 0.6–2 mM GAP3, 0–2.5 μM hemin, read-out: Ki (inhibition constant from secondary plot)): 1 µM
inhibitory effect relative to reported inhibitors of other eukaryotic CSs ([3]; hemin on PcCS versus inhibition constants larger than 0.1 mM): 10 times
mode of inhibition for AcCoA ([3]; rPcCS, double-reciprocal plots): competitive inhibitor
mode of inhibition for OAA ([3]; rPcCS, double-reciprocal plots): non-competitive inhibitor
Ki ([3]; read-out: Ki AcCoA, rPcCS, pH 8.5, AcCoA as variable substrate): 5.8 µM
Ki ([3]; read-out: Ki OAA, rPcCS, pH 8.5, OAA as variable substrate): 8.7 µM
